Measurements taken from the NIST ThermoML archive (doi:10.1016/j.jct.2006.06.008).

How the values were obtained:
[1] = 101 kPa, Liquid
[2] = xn = mol fraction of the nth substance listed; details: 101 kPa, Liquid

CCCCO [butan-1-ol]
[1]
Details	mass density [kg/m3]	speed of sound [m/s]	viscosity [mPa·s]
293.15 K	809.5	1257	2.941
298.15 K	805.75	1240	2.571
303.15 K	801.8	1224	2.255

C1CCCCC1 [cyclohexane]
[1]
Details	mass density [kg/m3]	speed of sound [m/s]	viscosity [mPa·s]
293.15 K	778.62	1279	0.968
298.15 K	773.92	1254	0.887
303.15 K	769.19	1230	0.816

C1CCCC1 [cyclopentane]
[1]
Details	mass density [kg/m3]	speed of sound [m/s]	viscosity [mPa·s]
293.15 K	744.52	1232	0.439
298.15 K	739.55	1206	0.416
303.15 K	734.54	1180	0.394

C1CCCC1 [cyclopentane] + CCCO
[2]
Details	mass density, 293.15 K [kg/m3]	mass density, 298.15 K [kg/m3]	mass density, 303.15 K [kg/m3]	speed of sound, 293.15 K [m/s]	speed of sound, 298.15 K [m/s]	speed of sound, 303.15 K [m/s]	viscosity, 293.15 K [mPa·s]	viscosity, 298.15 K [mPa·s]	viscosity, 303.15 K [mPa·s]
x1 = 0.0461	800.15	796.09	791.98	1219	1202	1184	2.035	1.809	1.613
x1 = 0.09	796.74	792.61	788.44	1216	1198	1180	1.859	1.655	1.479
x1 = 0.1885	789.64	785.36	781.04	1209	1190	1171	1.571	1.406	1.275
x1 = 0.2951	782.12	777.69	773.21	1204	1183	1163	1.284	1.159	1.052
x1 = 0.4056	774.79	770.22	765.59	1200	1178	1157	1.057	0.961	0.875
x1 = 0.5051	768.67	763.96	759.2	1199	1176	1153	0.867	0.79	0.725
x1 = 0.61	762.67	757.84	752.96	1199	1175	1152	0.712	0.656	0.608
x1 = 0.7109	757.16	752.26	747.29	1200	1176	1152	0.594	0.553	0.514
x1 = 0.8225	751.67	746.7	741.66	1206	1181	1156	0.507	0.476	0.448
x1 = 0.9134	747.4	742.5	737.43	1214	1188	1163	0.46	0.434	0.41
x1 = 0.9532	745.94	740.91	735.84	1219	1193	1168	0.447	0.422	0.4
x1 = 1	744.52	739.55	734.54	1232	1206	1180	0.439	0.416	0.394

C1CCCC1 [cyclopentane] + CCO
[2]
Details	mass density, 293.15 K [kg/m3]	mass density, 298.15 K [kg/m3]	mass density, 303.15 K [kg/m3]	speed of sound, 293.15 K [m/s]	speed of sound, 298.15 K [m/s]	speed of sound, 303.15 K [m/s]	viscosity, 293.15 K [mPa·s]	viscosity, 298.15 K [mPa·s]	viscosity, 303.15 K [mPa·s]
x1 = 0.0488	784.97	780.62	776.23	1157	1139	1122	1.148	1.047	0.956
x1 = 0.1011	780.67	776.25	771.78	1155	1137	1118	1.07	0.977	0.896
x1 = 0.1932	774.13	769.58	764.99	1154	1135	1116	0.955	0.875	0.806
x1 = 0.2926	768.22	763.55	758.83	1157	1136	1116	0.822	0.756	0.696
x1 = 0.3897	763.12	758.34	753.5	1162	1140	1118	0.735	0.679	0.628
x1 = 0.489	758.81	753.94	749.01	1168	1146	1123	0.659	0.609	0.564
x1 = 0.5973	754.7	749.75	744.74	1177	1153	1130	0.582	0.54	0.502
x1 = 0.7012	751.29	746.28	741.2	1186	1162	1137	0.521	0.487	0.456
x1 = 0.7992	748.53	743.48	738.38	1196	1171	1146	0.475	0.446	0.42
x1 = 0.8886	746.41	741.36	736.25	1208	1182	1156	0.448	0.423	0.4
x1 = 0.9495	745.36	740.33	735.23	1217	1192	1166	0.44	0.417	0.394
x1 = 1	744.52	739.55	734.54	1232	1206	1180	0.439	0.416	0.394

CCO [ethanol]
[1]
Details	mass density [kg/m3]	speed of sound [m/s]	viscosity [mPa·s]
293.15 K	789.75	1162	1.187
298.15 K	785.46	1145	1.082
303.15 K	781.15	1128	0.987

CCO [ethanol] + C1CCCC1
[2], x2 = 0
Details	mass density [kg/m3]	speed of sound [m/s]	viscosity [mPa·s]
293.15 K	789.75	1162	1.187
298.15 K	785.46	1145	1.082
303.15 K	781.15	1128	0.987

CCO [ethanol] + C1CCCCC1
[2], x2 = 0
Details	mass density [kg/m3]	speed of sound [m/s]	viscosity [mPa·s]
293.15 K	789.75	1162	1.187
298.15 K	785.46	1145	1.082
303.15 K	781.15	1128	0.987

CCCO [propan-1-ol]
[1]
Details	mass density [kg/m3]	speed of sound [m/s]	viscosity [mPa·s]
293.15 K	803.59	1223	2.159
298.15 K	799.58	1206	1.915
303.15 K	795.55	1189	1.713

CCCO [propan-1-ol] + C1CCCC1
[2], x2 = 0
Details	mass density [kg/m3]	speed of sound [m/s]	viscosity [mPa·s]
293.15 K	803.59	1223	2.159
298.15 K	799.58	1206	1.915
303.15 K	795.55	1189	1.713

CCCO [propan-1-ol] + C1CCCCC1
[2], x2 = 0
Details	mass density [kg/m3]	speed of sound [m/s]	viscosity [mPa·s]
293.15 K	803.59	1223	2.159
298.15 K	799.58	1206	1.915
303.15 K	795.55	1189	1.713
